Data: publication PMC4624771, “Oriented Cell Division in the C. elegans Embryo Is Coordinated by G-Protein Signaling Dependent on the Adhesion GPCR LAT-1” (PLoS Genetics, 2015)

What was measured:
lat-1(ok1465) nematodes = assay: Lethality rescue assay in lat-1 mutant nematodes; assay type: in vivo
Text: Fig 2 Division plane defects in lat-1 mutant embryos are rescued by elevation of intracellular cAMP via a Gs protein/adenylyl cyclase pathway. […] In wild-type embryos treated with the RNAi control vector L4440 ABal divides in an anterior-posterior direction (A) whereas in treated lat-1 mutants the division plane is almost perpendicular to MS (B). gsa-1 RNAi by feeding over two generations leads to a turning of the F2 ABal division plane in a direction similar to that in lat-1 mutants (C). F2 lat-1; gsa-1(RNAi) embryos show a similar ABal division plane to lat-1 mutants (D). (E) Cell division plane angles of ABal relative to MS after knockdown of gsa-1. […] The vector L4440 served as negative control. Data are shown as means ± SD. * p < 0.05; *** p < 0.001; n ≥ 11. (F) cAMP levels are reduced in lat-1 embryos compared to a control wild-type population. cAMP levels were measured after lysis (15 μg protein) by cAMP accumulation assay. Assays were performed in three independent experiments, data are given as means ± SD. ** p < 0.01. (G) Rescue of developmental lethality in lat-1 nematodes treated with compounds promoting cAMP accumulation: forskolin (80 μM), IBMX (10 mM) and 8-Br-cAMP (0.25 mM). Mothers and subsequently offspring of wild-type and lat-1 individuals were incubated and individuals reaching adulthood were scored (n = 410). As controls, nematodes were incubated in solvent without drug (mock). Data are shown as means ± SD. * p < 0.05; ** p < 0.01; *** p < 0.001. (H) Forskolin increases cAMP levels in C. elegans embryos and adults. lat-1 mutants and subsequently embryos were incubated with 80 μM forskolin. […] As controls, nematodes were treated with 0.8% DMSO lacking forskolin (mock). Basal cAMP levels of mock control are: 0.70 ± 0.14 nM (wild-type embryos); 0.37 ± 0.19 nM (lat-1 embryos); 1.9 ± 0.7 nM (wild-type adults); 2.3 ± 0.8 nM (lat-1 adults). Assays were performed in three independent experiments, data are given as means ± SD. * p < 0.05; ** p < 0.01; *** p < 0.001. (I-L) Relative positions of ABala, ABalp, and MS in an AB^4 embryo. Schematic representation (top) and DIC microscopy (bottom), scale bars = 10 μm. In wild-type embryos (I) and embryos incubated in 80 μM forskolin for 120 minutes (K) ABal divides in an anterior-posterior direction with only ABalp forming an interface with MS. In lat-1 mutants the division plane is skewed resulting in ABala and ABalp contacting MS (J). lat-1 embryos treated with 80 μM forskolin for 120 minutes display wild-type division and cell interfaces (L). (M) Arrangement of blastomeres in the 12-cell stage embryo. […] The right-hand side is two views of the mean positions of the blastomeres. The spheres are enlarged to convey an impression of the contacts. Forskolin turns the ABal spindle in the mutant in a more anterior direction. (N) Cell division plane angles of ABal relative to MS of untreated wild-type/lat-1 controls and wild-type/lat-1 embryos after incubation of mothers and subsequently embryos for 48 hours in 80 μM forskolin. Upon forskolin treatment, mutant embryos display a wild-type division angle. As controls, nematodes were treated with 0.8% DMSO lacking forskolin (mock). Data are shown as average angles ± SD, *** p < 0.001; n ≥ 12. (O) Forskolin reduces the contact length of ABala to MS. Ratio of relative contact lengths of ABala to MS and ABalp to MS cells lat-1 embryos untreated (control, n = 10) and after incubation of mothers and subsequently embryos for 48 hours in 80 μM forskolin (n = 11). […] Data were calculated from pixel analyses utilizing DIC images and are shown as means ± SD, ** p < 0.01.
All compounds were obtained from Sigma Aldrich. Forskolin was dissolved in DMSO to 10 mM, 3-isobutyl-1-methylxanthine (IBMX) in Dent´s buffer to 10 mM, 8-bromoadenosine 3′,5′-cyclic monophosphate (8-Br-cAMP) in 1 N ammonium hydroxide to 250 mM and 2',5'-dideoxyadenosine (ddA) was diluted in DMSO to 100 mM prior to final dilution in Dent´s buffer. […]

[1] = system: cAMP levels in C. elegans embryos and adults; assay: In vivo cAMP measurement in C. elegans embryos and adults; settings: cAMP accumulation assay after lysis
Text: (§1) Fig 2 Division plane defects in lat-1 mutant embryos are rescued by elevation of intracellular cAMP via a Gs protein/adenylyl cyclase pathway. […] In wild-type embryos treated with the RNAi control vector L4440 ABal divides in an anterior-posterior direction (A) whereas in treated lat-1 mutants the division plane is almost perpendicular to MS (B). gsa-1 RNAi by feeding over two generations leads to a turning of the F2 ABal division plane in a direction similar to that in lat-1 mutants (C). F2 lat-1; gsa-1(RNAi) embryos show a similar ABal division plane to lat-1 mutants (D). (E) Cell division plane angles of ABal relative to MS after knockdown of gsa-1. […] The vector L4440 served as negative control. Data are shown as means ± SD. * p < 0.05; *** p < 0.001; n ≥ 11. (F) cAMP levels are reduced in lat-1 embryos compared to a control wild-type population. cAMP levels were measured after lysis (15 μg protein) by cAMP accumulation assay. Assays were performed in three independent experiments, data are given as means ± SD. ** p < 0.01. […] Mothers and subsequently offspring of wild-type and lat-1 individuals were incubated and individuals reaching adulthood were scored (n = 410). […] Data were calculated from pixel analyses utilizing DIC images and are shown as means ± SD, ** p < 0.01. […]

C. elegans embryos = assay: Contact length ratio of ABala-MS to ABalp-MS in embryos; assay type: in vivo; settings: n = 11
Text: as §1

lat-1 mutants = assay: Fertility rescue assay (brood size); assay type: in vivo, C. elegans; settings: 80 μM forskolin, independently of time and duration of drug application
Protocol: Supplementary file pgen.1005624.s004.tif: S3 Fig A cAMP-mediated signal is involved in the role of LAT-1 in cleavage plane orientation but not in fertility. (A) Fertility defects of lat-1 mutants are not rescued by treatment of hermaphrodites from embryonic stages to adulthood with 80 μM forskolin. Brood size was scored compared to untreated (mock), DMSO-treated (0.8%) and wild-type control. Data are given as means ± SD, n.s. not significant. […] (TIF) Click here for additional data file.
Ten L4 hermaphrodites were allowed to lay eggs on separate NGM plates containing 80 µM forskolin or respective solvent and seeded with OP50. Plates were incubated at 22 °C. Every 24 hours hermaphrodites were transferred onto fresh plates until egg-laying ceased and embryos were scored. Experiments were conducted at least in triplicate. Data were examined with an unpaired two-tailed t test for each genotype and condition, means are presented with SD.

[2] = target: rat latrophilin LPHN1 (ADGRL1) (rat) (UniProt O88917)
wild-type embryos = assay: Embryonic lethality after adenylyl cyclase inhibition, wild-type; assay type: in vivo, C. elegans; settings: adult hermaphrodites and subsequently very early embryos, 1 mM ddA vs 1% DMSO mock; n > 520
Protocol: (§2) All compounds were obtained from Sigma Aldrich. Forskolin was dissolved in DMSO to 10 mM, 3-isobutyl-1-methylxanthine (IBMX) in Dent´s buffer to 10 mM, 8-bromoadenosine 3′,5′-cyclic monophosphate (8-Br-cAMP) in 1 N ammonium hydroxide to 250 mM and 2',5'-dideoxyadenosine (ddA) was diluted in DMSO to 100 mM prior to final dilution in Dent´s buffer. Peptides were synthesized (see Supporting Experimental Procedures) and dissolved in DMSO to 100 mM prior to final dilution in M9. Worms were incubated in 80 μM forskolin, 10 mM IBMX, 0.25 mM 8-Br-cAMP, 1 mM ddA or 0.1 mM peptide solution, respectively, containing E. coli OP50.
(§3) Supplementary file pgen.1005624.s005.tif: S4 Fig Inhibition of adenylyl cyclases in wild-type hermaphrodites partially mimics the lat-1 phenotype. […] Note that this effect might be not fully penetrant due potential difficulties in drug accessibility. As controls, nematodes were treated with 1% DMSO lacking ddA (mock). Individuals surviving embryogenesis were scored (n > 520). Data are given as means ± SD. n.s. not significant; *** p < 0.001. (TIF) Click here for additional data file.

lat-1 mutant embryos = assay: Embryonic lethality after adenylyl cyclase inhibition, lat-1 mutants; assay type: in vivo, C. elegans; settings: 1 mM ddA vs 1% DMSO mock; n > 520
Protocol: as §2, §3

[3] = target: T1, C. elegans latrophilin homolog LAT-1 (C. elegans) (UniProt G5EDW2)
T1 sequence: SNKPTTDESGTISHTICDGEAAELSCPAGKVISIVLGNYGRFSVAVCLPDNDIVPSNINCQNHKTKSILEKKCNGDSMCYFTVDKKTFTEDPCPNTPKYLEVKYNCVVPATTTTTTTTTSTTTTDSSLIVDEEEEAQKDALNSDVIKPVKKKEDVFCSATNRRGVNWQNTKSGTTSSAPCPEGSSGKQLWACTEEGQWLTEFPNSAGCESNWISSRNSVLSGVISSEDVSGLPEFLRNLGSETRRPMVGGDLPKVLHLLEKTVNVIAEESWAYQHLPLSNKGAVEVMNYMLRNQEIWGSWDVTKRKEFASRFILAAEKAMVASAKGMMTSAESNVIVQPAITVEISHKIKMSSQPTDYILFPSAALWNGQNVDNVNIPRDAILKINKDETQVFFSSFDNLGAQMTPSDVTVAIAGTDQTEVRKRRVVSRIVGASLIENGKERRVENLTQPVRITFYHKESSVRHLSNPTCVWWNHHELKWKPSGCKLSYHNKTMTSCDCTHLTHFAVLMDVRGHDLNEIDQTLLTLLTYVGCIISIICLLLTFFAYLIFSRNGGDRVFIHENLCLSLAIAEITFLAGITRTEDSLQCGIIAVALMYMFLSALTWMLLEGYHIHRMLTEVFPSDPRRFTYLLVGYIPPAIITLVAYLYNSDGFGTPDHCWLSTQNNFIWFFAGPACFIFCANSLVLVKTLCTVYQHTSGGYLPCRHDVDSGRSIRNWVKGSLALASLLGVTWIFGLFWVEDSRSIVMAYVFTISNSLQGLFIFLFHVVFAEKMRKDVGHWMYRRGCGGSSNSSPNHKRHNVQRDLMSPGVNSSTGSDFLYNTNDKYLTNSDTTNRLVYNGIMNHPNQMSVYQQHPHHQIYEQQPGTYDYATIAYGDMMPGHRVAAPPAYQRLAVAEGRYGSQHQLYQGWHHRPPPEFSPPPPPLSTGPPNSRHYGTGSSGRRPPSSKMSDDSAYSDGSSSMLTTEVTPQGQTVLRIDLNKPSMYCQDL

Chain of UniProt O88917 (O88917 25-1515): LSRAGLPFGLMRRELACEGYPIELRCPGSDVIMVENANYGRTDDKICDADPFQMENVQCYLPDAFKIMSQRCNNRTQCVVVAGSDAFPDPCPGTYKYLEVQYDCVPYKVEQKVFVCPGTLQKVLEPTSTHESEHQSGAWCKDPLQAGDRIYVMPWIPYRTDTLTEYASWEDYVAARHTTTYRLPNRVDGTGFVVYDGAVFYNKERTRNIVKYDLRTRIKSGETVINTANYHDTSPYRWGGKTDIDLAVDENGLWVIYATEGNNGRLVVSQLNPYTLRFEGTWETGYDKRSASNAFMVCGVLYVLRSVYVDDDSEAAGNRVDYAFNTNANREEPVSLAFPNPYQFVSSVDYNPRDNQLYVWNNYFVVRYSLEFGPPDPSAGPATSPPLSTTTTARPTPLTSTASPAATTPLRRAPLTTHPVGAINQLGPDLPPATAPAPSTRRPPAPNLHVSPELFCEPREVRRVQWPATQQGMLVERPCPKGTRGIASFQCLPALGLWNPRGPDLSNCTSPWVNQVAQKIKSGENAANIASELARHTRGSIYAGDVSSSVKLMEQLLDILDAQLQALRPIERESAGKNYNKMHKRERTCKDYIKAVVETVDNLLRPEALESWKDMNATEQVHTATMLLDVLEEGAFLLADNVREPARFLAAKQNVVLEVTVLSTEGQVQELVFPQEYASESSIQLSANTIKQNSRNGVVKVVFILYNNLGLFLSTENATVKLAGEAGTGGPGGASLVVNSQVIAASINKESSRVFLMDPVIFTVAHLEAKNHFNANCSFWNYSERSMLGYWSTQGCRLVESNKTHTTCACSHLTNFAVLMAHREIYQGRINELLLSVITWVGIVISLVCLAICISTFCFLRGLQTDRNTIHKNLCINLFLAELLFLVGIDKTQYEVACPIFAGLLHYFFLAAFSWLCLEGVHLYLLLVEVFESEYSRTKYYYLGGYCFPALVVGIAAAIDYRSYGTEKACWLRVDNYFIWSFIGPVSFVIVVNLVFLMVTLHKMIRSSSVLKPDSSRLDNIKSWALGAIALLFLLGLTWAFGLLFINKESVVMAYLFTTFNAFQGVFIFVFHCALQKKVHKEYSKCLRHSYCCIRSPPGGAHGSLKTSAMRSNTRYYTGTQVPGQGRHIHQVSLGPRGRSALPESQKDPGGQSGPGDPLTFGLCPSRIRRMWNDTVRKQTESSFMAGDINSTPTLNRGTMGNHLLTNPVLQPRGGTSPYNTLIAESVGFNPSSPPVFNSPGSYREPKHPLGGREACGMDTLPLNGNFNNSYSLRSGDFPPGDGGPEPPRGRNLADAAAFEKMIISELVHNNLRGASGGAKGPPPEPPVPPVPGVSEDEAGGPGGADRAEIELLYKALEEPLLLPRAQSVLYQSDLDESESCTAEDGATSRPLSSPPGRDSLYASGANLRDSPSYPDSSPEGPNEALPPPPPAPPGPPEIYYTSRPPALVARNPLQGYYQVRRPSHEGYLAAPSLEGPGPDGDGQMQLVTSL

With `C=C[C@@]1(C)CC(=O)[C@]2(O)[C@@]3(C)[C@@H](O)CCC(C)(C)[C@@H]3[C@H](O)[C@H](OC(C)=O)[C@@]2(C)O1` [forskolin] the “effect on embryonic lethality of lat-1 worms, in words” value (lat-1(ok1465) nematodes; L4 larvae and subsequently embryos incubated, forskolin 80 μM, IBMX 10 mM, 8-Br-cAMP 0.25 mM) was “amelioration of embryonic lethality”, the “time point of drug application needed for rescue of developmental lethality, in words” value (lat-1(ok1465) nematodes; lat-1 mutants, 80 μM forskolin) was “only when adding forskolin to the mother or the very early embryonic stages” and the “survival rate (individuals reaching adulthood)” value (lat-1(ok1465) nematodes; lat-1 worms, mothers (L4) and subsequently offspring incubated in 80 μM forskolin, untreated 33%) was 73%. The “effect of concentrations higher than 80 μM on C. elegans, in words” value (lat-1(ok1465) nematodes; various concentrations tested) was “higher concentrations were detrimental”, the “concentration with optimal effect” value (lat-1(ok1465) nematodes; various concentrations tested on C. elegans) was 80 µM and the “cAMP levels in embryos, in words” value ([1]; lat-1 mutants and subsequently embryos incubated with 80 μM forskolin vs 0.8% DMSO mock) was “increase in cAMP levels”. The “cAMP in hermaphrodites, in words” value ([1]; wild-type and lat-1 hermaphrodites (L4 stage), 80 μM forskolin 48 hours vs 0.8% DMSO mock) was “elevated cAMP”, the “contact of ABala to MS in wild-type embryos, in words” value (C. elegans embryos; forskolin-treated wild-type embryos, 80 μM) was “does not contact MS” and the “contact of ABala to MS in lat-1 embryos, in words” value (C. elegans embryos; lat-1 embryos, mothers and subsequently embryos 48 hours in 80 μM forskolin, untreated ratio 0.72 ± 0.03) was “strongly reduced”. The “rescue of reduced brood size of lat-1 mutants, in words” value (lat-1 mutants) was “did not detect any rescue”.

For “RP13, peptide of 13 amino acids C-terminal of the rat LPHN1 GPS cleavage site”, the cAMP accumulation (ALPHAScreen) in COS-7 cells transfected with rat LPHN1 and stimulated with 1 mM peptide, fold over basal [2] was 2.3 fold.

With `C[C@H]1O[C@@H](n2cnc3c(N)ncnc32)C[C@@H]1O` [ddA, 2',5'-dideoxyadenosine] the “embryonic lethality in wild-type, in words” value (wild-type embryos) was “specific embryonic lethality” and the “embryonic lethality in lat-1 mutant embryos, in words” value (lat-1 mutant embryos) was “not in lat-1 mutant embryos”.

THFAVLMDVRGH [CP12, peptide of 12 amino acids C-terminal of the LAT-1 GPS cleavage site] showed a cAMP accumulation (ALPHAScreen) in lat-1-transfected COS-7 cells stimulated with 1 mM peptide, fold over basal [3] of 1.6 fold.
